Active and inactive are the calls of the source.
Experiments:
[1] = molecular target: T1, Calpain-2 catalytic subunit (Sus scrofa, UniProt P43367); assay: pig calpain II inhibitor potency, dose response, biochemical, fluorogenic peptide substrate (AID 1420); format: functional
T1 sequence (P43367 whole entry): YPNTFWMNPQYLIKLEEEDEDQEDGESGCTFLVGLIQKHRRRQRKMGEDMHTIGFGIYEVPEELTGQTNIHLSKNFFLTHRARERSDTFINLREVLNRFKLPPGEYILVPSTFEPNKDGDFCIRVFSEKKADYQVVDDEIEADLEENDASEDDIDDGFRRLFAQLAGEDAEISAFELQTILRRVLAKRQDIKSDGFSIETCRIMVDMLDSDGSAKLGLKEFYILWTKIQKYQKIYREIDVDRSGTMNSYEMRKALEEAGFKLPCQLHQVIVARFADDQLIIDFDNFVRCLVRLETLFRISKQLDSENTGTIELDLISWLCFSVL

[2] = Luminescence Cell-Based Dose Retest to Confirm Inhibitors of Cancer Stem Cells. [Related pubchem assays (depositor defined):AID2717, AID2721]; format: functional; details: Homo sapiens
[3] = molecular target: Heat shock protein HSP 90-alpha (Homo sapiens, UniProt P07900); format: functional, organism-based
[4] = molecular target: Cytochrome P450 2D6 (Homo sapiens, UniProt P10635);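 note: CYP2D6 member of a cytochrome P450 panel assay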
[5] = molecular target: Cytochrome P450 2C9 (Homo sapiens, UniProt P11712)
[6] = molecular target: T2, Protein RecA (Mycobacterium tuberculosis, UniProt P9WHJ3); assay: Fluorescence Cell-Free Homogeneous Dose Retest to Identify Inhibitors of RecA-Intein Splicing Activity. [Related pubchem assays (depositor defined):AID2097, AID2223, AID489010, AID492950]; format: functional
T2 sequence (P9WHJ3 whole entry): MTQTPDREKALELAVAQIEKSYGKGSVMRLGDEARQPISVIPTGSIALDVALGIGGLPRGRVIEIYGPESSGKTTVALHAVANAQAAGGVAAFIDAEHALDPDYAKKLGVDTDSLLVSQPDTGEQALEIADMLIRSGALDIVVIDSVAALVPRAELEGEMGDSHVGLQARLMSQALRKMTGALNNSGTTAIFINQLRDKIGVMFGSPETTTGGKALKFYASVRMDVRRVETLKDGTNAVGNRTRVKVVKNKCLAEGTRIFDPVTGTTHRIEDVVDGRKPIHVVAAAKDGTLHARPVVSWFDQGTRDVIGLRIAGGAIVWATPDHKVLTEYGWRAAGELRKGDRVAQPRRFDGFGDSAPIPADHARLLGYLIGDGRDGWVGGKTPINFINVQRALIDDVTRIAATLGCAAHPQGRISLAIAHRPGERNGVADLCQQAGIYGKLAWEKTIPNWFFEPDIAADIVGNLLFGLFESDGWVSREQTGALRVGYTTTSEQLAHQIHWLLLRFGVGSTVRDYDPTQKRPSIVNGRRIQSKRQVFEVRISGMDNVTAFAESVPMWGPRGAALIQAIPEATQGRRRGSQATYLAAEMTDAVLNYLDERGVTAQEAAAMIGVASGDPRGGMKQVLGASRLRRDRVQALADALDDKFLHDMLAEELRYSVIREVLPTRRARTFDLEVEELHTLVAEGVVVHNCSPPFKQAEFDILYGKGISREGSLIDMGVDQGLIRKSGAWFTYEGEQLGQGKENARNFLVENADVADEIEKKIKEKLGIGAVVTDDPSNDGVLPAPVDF

[7] = molecular target: T3, Replicative DNA helicase DnaB (Mycobacterium tuberculosis, UniProt P9WMR3); assay: DnaB intein splicing inhibitors, dose response, biochemical, cell-free fluorescence (AID 449749); format: functional
T3 sequence (P9WMR3 whole entry): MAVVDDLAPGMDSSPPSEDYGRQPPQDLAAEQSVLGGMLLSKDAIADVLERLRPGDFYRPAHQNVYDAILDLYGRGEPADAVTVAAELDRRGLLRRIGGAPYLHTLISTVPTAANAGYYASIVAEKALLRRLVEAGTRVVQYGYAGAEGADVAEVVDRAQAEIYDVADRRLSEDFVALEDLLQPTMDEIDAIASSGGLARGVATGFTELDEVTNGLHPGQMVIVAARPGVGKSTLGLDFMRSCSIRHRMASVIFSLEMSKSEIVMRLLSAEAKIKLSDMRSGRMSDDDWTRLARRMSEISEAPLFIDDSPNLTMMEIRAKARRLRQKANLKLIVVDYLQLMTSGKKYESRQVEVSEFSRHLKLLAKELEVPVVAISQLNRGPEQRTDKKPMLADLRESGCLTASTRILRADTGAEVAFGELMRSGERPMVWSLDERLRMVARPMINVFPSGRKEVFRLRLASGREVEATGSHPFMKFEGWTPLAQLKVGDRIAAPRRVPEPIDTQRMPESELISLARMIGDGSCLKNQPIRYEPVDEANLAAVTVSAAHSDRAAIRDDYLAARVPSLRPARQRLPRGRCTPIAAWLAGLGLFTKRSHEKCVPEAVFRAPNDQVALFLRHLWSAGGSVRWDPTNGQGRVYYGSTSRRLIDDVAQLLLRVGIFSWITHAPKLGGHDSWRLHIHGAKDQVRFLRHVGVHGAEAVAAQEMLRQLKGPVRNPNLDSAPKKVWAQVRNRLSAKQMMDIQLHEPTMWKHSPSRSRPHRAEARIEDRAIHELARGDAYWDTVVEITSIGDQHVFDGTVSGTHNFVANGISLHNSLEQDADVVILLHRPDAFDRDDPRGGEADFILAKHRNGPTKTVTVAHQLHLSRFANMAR

[8] = cells
[9] = HEp-2 cell cytotoxicity, dose response, cytotoxicity control for RSV inhibitor project, HTS (AID 2410); format: functional; details: human respiratory syncytial virus
[10] = molecular target: T4, Leucine aminopeptidase (Plasmodium falciparum 3D7, UniProt Q8IL11); assay: P. falciparum M17LAP inhibitors, primary screen, biochemical, fluorogenic H-Leu-NHMec substrate, 1536-well (AID 1619); format: functional
T4 sequence (Q8IL11 whole entry): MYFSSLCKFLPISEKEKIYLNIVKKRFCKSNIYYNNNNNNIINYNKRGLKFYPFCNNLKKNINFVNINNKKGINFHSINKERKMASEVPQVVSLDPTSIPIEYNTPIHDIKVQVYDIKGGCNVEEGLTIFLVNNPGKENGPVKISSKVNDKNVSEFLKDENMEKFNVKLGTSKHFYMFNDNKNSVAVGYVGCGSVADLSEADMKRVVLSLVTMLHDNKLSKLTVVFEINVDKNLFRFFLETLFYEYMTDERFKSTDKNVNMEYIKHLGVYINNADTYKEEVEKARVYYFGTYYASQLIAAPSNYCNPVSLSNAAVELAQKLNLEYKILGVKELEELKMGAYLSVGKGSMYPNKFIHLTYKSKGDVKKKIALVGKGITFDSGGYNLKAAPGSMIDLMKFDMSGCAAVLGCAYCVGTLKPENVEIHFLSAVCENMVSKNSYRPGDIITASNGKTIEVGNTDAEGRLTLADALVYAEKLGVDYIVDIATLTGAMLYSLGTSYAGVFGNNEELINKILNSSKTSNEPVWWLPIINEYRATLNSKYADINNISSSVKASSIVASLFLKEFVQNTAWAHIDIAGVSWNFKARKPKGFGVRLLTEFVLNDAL

[11] = molecular target: T5, Cytochrome P450 1A2 (Homo sapiens, UniProt P05177);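 note: PubChem cytochrome P450 panel assay, CYP1A2 panel member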
T5 sequence (P05177 whole entry): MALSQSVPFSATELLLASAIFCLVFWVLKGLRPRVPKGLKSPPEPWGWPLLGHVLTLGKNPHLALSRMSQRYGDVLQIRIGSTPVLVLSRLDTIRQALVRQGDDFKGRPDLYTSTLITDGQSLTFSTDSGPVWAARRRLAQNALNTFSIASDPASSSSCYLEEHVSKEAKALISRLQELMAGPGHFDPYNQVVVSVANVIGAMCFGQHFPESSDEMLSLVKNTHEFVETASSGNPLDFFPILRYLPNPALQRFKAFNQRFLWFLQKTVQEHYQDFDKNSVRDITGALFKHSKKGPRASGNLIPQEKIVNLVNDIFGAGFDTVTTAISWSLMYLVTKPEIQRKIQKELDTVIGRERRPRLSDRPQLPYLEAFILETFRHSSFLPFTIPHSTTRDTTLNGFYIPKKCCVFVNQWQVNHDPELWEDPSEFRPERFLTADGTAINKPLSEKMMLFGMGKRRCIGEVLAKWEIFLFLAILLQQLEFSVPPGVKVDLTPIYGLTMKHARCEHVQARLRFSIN

[12] = system: Streptococcus sp. 'group A'; assay: growth inhibition of control SK(-) GAS strain, dose response, counter-screen for streptokinase expression inhibitor project, luminescence, kanamycin, BacTiterGlo, confirmation (AID 1900); format: functional, organism-based
[13] = NIH-3T3 fibroblast cytotoxicity, dose response, cytotoxicity control, cell-based, fluorescence, Alamar Blue, secondary assay (AID 2327); format: functional;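 note: NIH-3T3 mouse fibroblasts cultured with fluconazole at 8 µg/mL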
[14] = C. albicans growth with fluconazole, confirmation, fluorescence, retest (AID 2467); format: functional, cell-based
[15] = system: Streptococcus; assay: Group A Streptococcus viability loss, dose response, counter-screen for streptokinase expression inhibitor project, luminescence, BacTiterGlo (AID 1915); format: functional, organism-based;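 note: potency for reduction of bacterial viability or growth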
[16] = molecular target: Large T antigen (Simian virus 40, UniProt P03070); format: functional, Betapolyomavirus macacae;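 note: Confirmatory-stage PubChem screen for compounds that inhibit SV40 T antigen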
[17] = molecular target: FAD-linked sulfhydryl oxidase ALR (Homo sapiens, UniProt P55789); assay: inhibitors of human ALR sulfhydryl oxidase, dose response, biochemical, H2O2 detection, luminescence, cherry-pick (AID 493248)
[18] = molecular target: T6, Rac GTPase-activating protein 1 (Homo sapiens, UniProt Q9H0H5); assay: MgcRacGAP GTPase-activating activity inhibitors, confirmation, biochemical, ADP Hunter fluorescence, primary and confirmatory (AID 624330); format: functional
T6 sequence (Q9H0H5 whole entry): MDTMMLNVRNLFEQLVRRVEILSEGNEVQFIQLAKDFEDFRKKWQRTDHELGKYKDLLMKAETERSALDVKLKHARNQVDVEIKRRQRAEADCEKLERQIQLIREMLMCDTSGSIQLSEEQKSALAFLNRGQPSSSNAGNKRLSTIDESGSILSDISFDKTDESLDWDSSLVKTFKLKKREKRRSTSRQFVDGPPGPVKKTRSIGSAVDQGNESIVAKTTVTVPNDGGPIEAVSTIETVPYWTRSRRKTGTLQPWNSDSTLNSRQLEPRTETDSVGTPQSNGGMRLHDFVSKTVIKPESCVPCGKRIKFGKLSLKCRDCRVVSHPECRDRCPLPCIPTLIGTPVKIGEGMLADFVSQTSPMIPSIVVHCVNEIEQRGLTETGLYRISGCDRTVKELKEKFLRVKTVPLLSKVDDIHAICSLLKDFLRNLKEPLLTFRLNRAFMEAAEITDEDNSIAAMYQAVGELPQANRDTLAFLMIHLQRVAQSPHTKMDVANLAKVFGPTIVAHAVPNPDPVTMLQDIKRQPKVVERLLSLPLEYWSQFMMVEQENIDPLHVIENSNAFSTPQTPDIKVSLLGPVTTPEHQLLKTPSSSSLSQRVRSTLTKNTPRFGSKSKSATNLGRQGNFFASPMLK

Sequence of Cytochrome P450 2C9 (P11712 whole entry): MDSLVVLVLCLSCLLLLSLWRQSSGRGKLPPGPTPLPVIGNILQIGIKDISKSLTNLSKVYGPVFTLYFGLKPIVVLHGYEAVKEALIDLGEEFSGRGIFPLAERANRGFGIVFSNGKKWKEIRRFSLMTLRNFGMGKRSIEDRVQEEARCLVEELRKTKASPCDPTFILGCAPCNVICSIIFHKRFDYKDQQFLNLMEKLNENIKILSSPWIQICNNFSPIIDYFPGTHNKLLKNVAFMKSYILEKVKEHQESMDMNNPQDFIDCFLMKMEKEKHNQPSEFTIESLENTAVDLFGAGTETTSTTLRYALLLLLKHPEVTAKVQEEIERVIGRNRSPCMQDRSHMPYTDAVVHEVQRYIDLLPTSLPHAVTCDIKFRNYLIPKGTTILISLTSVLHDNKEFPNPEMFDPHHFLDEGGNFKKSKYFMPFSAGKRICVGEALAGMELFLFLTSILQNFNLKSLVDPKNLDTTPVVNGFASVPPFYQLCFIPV
Sequence of FAD-linked sulfhydryl oxidase ALR (P55789 whole entry): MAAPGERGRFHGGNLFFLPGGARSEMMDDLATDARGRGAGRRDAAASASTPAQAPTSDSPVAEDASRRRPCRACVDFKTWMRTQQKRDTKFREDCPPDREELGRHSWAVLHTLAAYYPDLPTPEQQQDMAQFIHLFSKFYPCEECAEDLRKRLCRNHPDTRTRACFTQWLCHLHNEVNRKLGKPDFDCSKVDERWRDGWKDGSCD
Sequence of Large T antigen (P03070 whole entry): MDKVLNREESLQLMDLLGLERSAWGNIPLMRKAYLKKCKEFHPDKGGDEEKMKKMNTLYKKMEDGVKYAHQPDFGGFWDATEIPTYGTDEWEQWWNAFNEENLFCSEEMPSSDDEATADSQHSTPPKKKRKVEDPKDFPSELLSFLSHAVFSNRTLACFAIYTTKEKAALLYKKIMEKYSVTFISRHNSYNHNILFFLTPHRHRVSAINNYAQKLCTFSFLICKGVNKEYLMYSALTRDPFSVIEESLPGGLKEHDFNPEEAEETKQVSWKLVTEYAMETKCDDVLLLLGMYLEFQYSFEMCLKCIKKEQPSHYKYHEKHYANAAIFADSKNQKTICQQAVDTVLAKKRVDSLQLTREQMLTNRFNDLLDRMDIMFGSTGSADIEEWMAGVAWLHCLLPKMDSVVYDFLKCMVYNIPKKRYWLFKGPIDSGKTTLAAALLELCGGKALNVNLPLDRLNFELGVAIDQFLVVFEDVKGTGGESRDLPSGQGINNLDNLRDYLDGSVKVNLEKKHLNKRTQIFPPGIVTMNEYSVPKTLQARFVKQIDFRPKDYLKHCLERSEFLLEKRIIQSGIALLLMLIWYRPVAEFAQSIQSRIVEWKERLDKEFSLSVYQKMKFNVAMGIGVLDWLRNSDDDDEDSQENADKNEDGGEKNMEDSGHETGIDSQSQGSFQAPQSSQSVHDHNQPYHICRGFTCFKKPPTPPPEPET
Sequence of Cytochrome P450 2D6 (P10635 whole entry): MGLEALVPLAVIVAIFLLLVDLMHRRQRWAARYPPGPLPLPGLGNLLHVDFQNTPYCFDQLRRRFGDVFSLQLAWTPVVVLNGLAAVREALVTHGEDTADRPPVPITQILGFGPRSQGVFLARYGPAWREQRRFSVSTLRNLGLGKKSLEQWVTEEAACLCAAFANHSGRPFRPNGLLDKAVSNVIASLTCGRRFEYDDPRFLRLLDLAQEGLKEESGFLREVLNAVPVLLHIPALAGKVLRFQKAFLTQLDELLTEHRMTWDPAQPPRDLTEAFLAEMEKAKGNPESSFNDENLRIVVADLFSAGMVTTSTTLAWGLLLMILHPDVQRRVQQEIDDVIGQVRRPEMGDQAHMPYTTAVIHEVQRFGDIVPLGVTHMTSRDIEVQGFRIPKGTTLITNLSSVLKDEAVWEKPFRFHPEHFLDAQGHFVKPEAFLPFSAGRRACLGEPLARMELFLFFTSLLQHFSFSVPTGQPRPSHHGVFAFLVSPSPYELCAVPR

## O=C(Nc1nc(-c2ccc(Cl)cc2)cs1)C1CCCO1 (configuration not stated)
[1]
  IC50: 19.1 µM (not active)

## Cc1cc(NC(=O)CSc2nnc(-c3ccncc3)n2N)ccc1Br
[1]
  IC50: > 50 µM (not active)

## COc1ccc2sc(-c3ccccc3OC)c(-c3ccc(O)cc3)c2c1
[2]
  AC50: 4.27 µM (active)
[3]
  AC50: 5.35 µM (active)

## COc1ccc(NC(=O)c2ccc(=O)oc2)cc1
[1]
  IC50: 11.5 µM (not active)

## O=c1oc2cc(Oc3c([N+](=O)[O-])cc(C(F)(F)F)cc3[N+](=O)[O-])ccc2c2c1CCCC2
[4]
  AC50: 11.2 µM (inconclusive)
[5]
  AC50: inconclusive
[6]
  EC50: 1.55 µM (active)
[7]
  AC50: > 380 µM (inactive)

## CCOc1ccc(N2C(=O)/C(=C\c3ccccc3OC)S(=O)(=O)C2c2cccc([N+](=O)[O-])c2)cc1 (configuration not stated)
[3]
  AC50: 26.2 µM (active)

## COc1cc2c(cc1OC)C(C)N(C(=O)c1cc3ccccc3o1)CC2 (configuration not stated)
[8]
  IC50: 39.6 µM (active)
[9]
  CC50: 17.7 µM (active)

## O=C(CCOc1ccccc1)Nc1ccc(S(=O)(=O)N2CCCC2)cc1
[1]
  IC50: 26.4 µM (not active)

## COCC(=O)n1nc(NCc2ccc(OC)cc2)nc1NCc1ccc(OC)cc1
[3]
  AC50: 8.12 µM (active)

## Cc1cc(O)nc(SCC(=O)Nc2ccc(F)cc2)c1C#N
[10]
  IC50: 4.1 µM (active)

## Cc1c(Br)cc(C(=O)NC2CCCCC2)c(C)c1C
[11]
  AC50: 3.55 µM (inconclusive)
[5]
  AC50: inconclusive

## O=C(COC(=O)CCc1ccccc1)NC12CC3CC(CC(C3)C1)C2
[1]
  IC50: 19.6 µM (not active)

## Cc1cccc(C)c1OCC(=O)NNC(=S)NC(=O)C1CC1
[12]
  EC50: 0.412 µM (active)
[13]
  EC50: > 160 µM (inactive)
[3]
  AC50: 1.15 µM (active)
[14]
  EC50: 1.66 µM (active)
[15]
  EC50: 7.38 µM (active)

## O=C1CCSc2ccc(Cl)cc2N1Cc1cccc(Cl)c1
[8]
  IC50: 42.8 µM (active)
[9]
  CC50: 35.5 µM (active)

## COC(=O)c1ccc(N2C(=O)C3CC(C)=C(C)CC3C2=O)cc1 (configuration not stated)
[1]
  IC50: 10.9 µM (not active)

## COc1ccc2sc(N3C(=O)C4CC=C(C)CC4C3=O)nc2c1 (configuration not stated)
[10]
  IC50: 35 µM (active)

## CCOc1ccc(Nc2nc(Cc3nnc(SCC(=O)NCc4ccco4)n3CC)cs2)cc1
[10]
  IC50: 28.1 µM (active)

## Cc1cc2nc(-c3ccc(NC(=O)C(C)C)cc3)oc2cc1C
[8]
  IC50: 39.1 µM (active)

## CCN(c1ccccc1)S(=O)(=O)c1ccc(OC)c(NC(=O)Cc2ccccc2OC)c1
[8]
  IC50: 35 µM (active)
[9]
  CC50: > 50 µM (active)

## O=C/C(=N\Nc1ccccc1)C(=O)c1ccc(Cl)cc1
[3]
  AC50: 3.15 µM (active)

## COc1cc(/C(C)=N/NC(=O)Cc2c(C)n[nH]c2O)ccc1O
[10]
  IC50: 34.1 µM (active)
[16]
  IC50: 13 µM (active)
[17]
  AC50: 4.03 µM (active)
[18]
  IC50: 69.8 µM (active)

## O=C(O)c1cc(/C=N\O)ccc1OCc1ccccc1
[10]
  IC50: 16.4 µM (active)

Reference: ChEMBL document CHEMBL1201862, “PubChem BioAssay data set” (2004)
